Species: Rattus norvegicus
Assay: DrugMatrix - Regimen: Daily Repeat
Format: toxicity, organism-based, Sprague-Dawley
Set-up: regimen Daily Repeat, gender Male, age 6-8 weeks
Conditions: in vivo, po, route oral GAVAGE, vehicle .5 % CMC; for BASOPHIL / EOSINOPHIL / ERYTHROCYTE COUNT / HEMATOCRIT / HEMOGLOBIN / LEUKOCYTE COUNT / LYMPHOCYTE / MEAN CORPUSCULAR HEMOGLOBIN / MEAN CORPUSCULAR HEMOGLOBIN CONCENTRATION / MEAN CORPUSCULAR VOLUME / MONOCYTE / NEUTROPHIL / PLATELET COUNT: tissue Blood; for ALANINE AMINOTRANSFERASE / ALBUMIN / ALKALINE PHOSPHATASE / ASPARTATE AMINOTRANSFERASE / BLOOD UREA NITROGEN / CHLORIDE / CHOLESTEROL / CREATINE PHOSPHOKINASE / CREATININE / GLUCOSE / PHOSPHORUS / POTASSIUM / SODIUM / TOTAL BILIRUBIN / TOTAL PROTEIN: tissue Plasma
[1] = 0 mg/kg, 72 h, dose level Control, time 3 day
[2] = 0 mg/kg, 120 h, dose level Control, time 5 day
[3] = 1 mg/kg, 72 h, dose level Low, time 3 day
[4] = 1 mg/kg, 120 h, dose level Low, time 5 day
[5] = 22 mg/kg, 72 h, dose level High, time 3 day
[6] = 22 mg/kg, 120 h, dose level High, time 5 day

For `N=C(N)NC(=O)c1nc(Cl)c(N)nc1N` [AMILORIDE], the BASOPHIL [1] was 0%, the EOSINOPHIL [1] was 0.33% and the “ERYTHROCYTE COUNT” value [1] was 6.2 x10E6/uL. For the same molecule, the HEMATOCRIT [1] was 38.08%, the HEMOGLOBIN [1] was 14.92 G/DL and the “LEUKOCYTE COUNT” value [1] was 11.13 x10E3/uL. For the same molecule, the LYMPHOCYTE [1] was 76%, the “MEAN CORPUSCULAR HEMOGLOBIN” value [1] was 24.1 pg and the “MEAN CORPUSCULAR HEMOGLOBIN CONCENTRATION” value [1] was 39.17 G/DL. The “MEAN CORPUSCULAR VOLUME” value [1] was 61.48 fL, the MONOCYTE [1] was 3.83% and the NEUTROPHIL [1] was 19.83%. For the same molecule, the “PLATELET COUNT” value [1] was 1327.5 x10E3/uL, the “ALANINE AMINOTRANSFERASE” value [1] was 40.17 u/L and the ALBUMIN [1] was 4.07 G/DL. For the same molecule, the “ALKALINE PHOSPHATASE” value [1] was 372 u/L, the “ASPARTATE AMINOTRANSFERASE” value [1] was 67.17 u/L and the “BLOOD UREA NITROGEN” value [1] was 18.83 mg/dL. The CHLORIDE [1] was 105.17 MEQ/L, the CHOLESTEROL [1] was 78.17 mg/dL and the “CREATINE PHOSPHOKINASE” value [1] was 149.17 u/L. The CREATININE [1] was 0.57 mg/dL, the GLUCOSE [1] was 185.17 mg/dL and the PHOSPHORUS [1] was 11.43 mg/dL. For the same molecule, the POTASSIUM [1] was 6.78 MEQ/L, the SODIUM [1] was 152.83 MEQ/L and the “TOTAL BILIRUBIN” value [1] was 0.4 mg/dL. The “TOTAL PROTEIN” value [1] was 6.87 G/DL, the BASOPHIL [2] was 0% and the EOSINOPHIL [2] was 0%. The “ERYTHROCYTE COUNT” value [2] was 6.05 x10E6/uL, the HEMATOCRIT [2] was 36.55% and the HEMOGLOBIN [2] was 14.7 G/DL. The “LEUKOCYTE COUNT” value [2] was 11.8 x10E3/uL, the LYMPHOCYTE [2] was 86.83% and the “MEAN CORPUSCULAR HEMOGLOBIN” value [2] was 24.37 pg. For the same molecule, the “MEAN CORPUSCULAR HEMOGLOBIN CONCENTRATION” value [2] was 40.32 G/DL, the “MEAN CORPUSCULAR VOLUME” value [2] was 60.47 fL and the MONOCYTE [2] was 0.83%. The NEUTROPHIL [2] was 12.33%, the “PLATELET COUNT” value [2] was 1177 x10E3/uL and the “ALANINE AMINOTRANSFERASE” value [2] was 41.83 u/L. The ALBUMIN [2] was 3.75 G/DL, the “ALKALINE PHOSPHATASE” value [2] was 377.5 u/L and the “ASPARTATE AMINOTRANSFERASE” value [2] was 60.83 u/L. For the same molecule, the “BLOOD UREA NITROGEN” value [2] was 16 mg/dL, the CHLORIDE [2] was 105.67 MEQ/L and the CHOLESTEROL [2] was 67.83 mg/dL. For the same molecule, the “CREATINE PHOSPHOKINASE” value [2] was 120.33 u/L, the CREATININE [2] was 0.6 mg/dL and the GLUCOSE [2] was 167.67 mg/dL. The PHOSPHORUS [2] was 10.03 mg/dL, the POTASSIUM [2] was 6.68 MEQ/L and the SODIUM [2] was 150.5 MEQ/L. For the same molecule, the “TOTAL BILIRUBIN” value [2] was 0.57 mg/dL, the “TOTAL PROTEIN” value [2] was 6.25 G/DL and the BASOPHIL [3] was 0%. For the same molecule, the EOSINOPHIL [3] was 1.33%, the “ERYTHROCYTE COUNT” value [3] was 6.13 x10E6/uL and the HEMATOCRIT [3] was 37.63%. The HEMOGLOBIN [3] was 14.93 G/DL, the “LEUKOCYTE COUNT” value [3] was 12.73 x10E3/uL and the LYMPHOCYTE [3] was 84%. For the same molecule, the “MEAN CORPUSCULAR HEMOGLOBIN” value [3] was 24.37 pg, the “MEAN CORPUSCULAR HEMOGLOBIN CONCENTRATION” value [3] was 39.67 G/DL and the “MEAN CORPUSCULAR VOLUME” value [3] was 61.4 fL. For the same molecule, the MONOCYTE [3] was 0.67%, the NEUTROPHIL [3] was 14% and the “PLATELET COUNT” value [3] was 1265 x10E3/uL. The “ALANINE AMINOTRANSFERASE” value [3] was 50 u/L, the ALBUMIN [3] was 3.87 G/DL and the “ALKALINE PHOSPHATASE” value [3] was 414 u/L. The “ASPARTATE AMINOTRANSFERASE” value [3] was 63.67 u/L, the “BLOOD UREA NITROGEN” value [3] was 15.67 mg/dL and the CHLORIDE [3] was 107 MEQ/L. For the same molecule, the CHOLESTEROL [3] was 81.33 mg/dL, the “CREATINE PHOSPHOKINASE” value [3] was 135.67 u/L and the CREATININE [3] was 0.57 mg/dL. For the same molecule, the GLUCOSE [3] was 168.67 mg/dL, the PHOSPHORUS [3] was 10.33 mg/dL and the POTASSIUM [3] was 6.13 MEQ/L. The SODIUM [3] was 152.33 MEQ/L, the “TOTAL BILIRUBIN” value [3] was 0.43 mg/dL and the “TOTAL PROTEIN” value [3] was 6.37 G/DL. The BASOPHIL [4] was 0%, the EOSINOPHIL [4] was 0% and the “ERYTHROCYTE COUNT” value [4] was 5.82 x10E6/uL. The HEMATOCRIT [4] was 35.67%, the HEMOGLOBIN [4] was 14.2 G/DL and the “LEUKOCYTE COUNT” value [4] was 12.4 x10E3/uL. For the same molecule, the LYMPHOCYTE [4] was 85.33%, the “MEAN CORPUSCULAR HEMOGLOBIN” value [4] was 24.43 pg and the “MEAN CORPUSCULAR HEMOGLOBIN CONCENTRATION” value [4] was 39.93 G/DL. The “MEAN CORPUSCULAR VOLUME” value [4] was 61.3 fL, the MONOCYTE [4] was 2% and the NEUTROPHIL [4] was 12.67%. For the same molecule, the “PLATELET COUNT” value [4] was 1224 x10E3/uL, the “ALANINE AMINOTRANSFERASE” value [4] was 35.33 u/L and the ALBUMIN [4] was 3.67 G/DL. For the same molecule, the “ALKALINE PHOSPHATASE” value [4] was 386.67 u/L, the “ASPARTATE AMINOTRANSFERASE” value [4] was 62 u/L and the “BLOOD UREA NITROGEN” value [4] was 15 mg/dL. The CHLORIDE [4] was 105.33 MEQ/L, the CHOLESTEROL [4] was 74 mg/dL and the “CREATINE PHOSPHOKINASE” value [4] was 130.33 u/L. For the same molecule, the CREATININE [4] was 0.63 mg/dL, the GLUCOSE [4] was 171 mg/dL and the PHOSPHORUS [4] was 10.63 mg/dL. For the same molecule, the POTASSIUM [4] was 6.7 MEQ/L, the SODIUM [4] was 150 MEQ/L and the “TOTAL BILIRUBIN” value [4] was 0.5 mg/dL. For the same molecule, the “TOTAL PROTEIN” value [4] was 6.1 G/DL, the BASOPHIL [5] was 0% and the EOSINOPHIL [5] was 1%. The “ERYTHROCYTE COUNT” value [5] was 5.75 x10E6/uL, the HEMATOCRIT [5] was 35.27% and the HEMOGLOBIN [5] was 13.6 G/DL. The “LEUKOCYTE COUNT” value [5] was 10.47 x10E3/uL, the LYMPHOCYTE [5] was 85% and the “MEAN CORPUSCULAR HEMOGLOBIN” value [5] was 23.63 pg. The “MEAN CORPUSCULAR HEMOGLOBIN CONCENTRATION” value [5] was 38.63 G/DL, the “MEAN CORPUSCULAR VOLUME” value [5] was 61.17 fL and the MONOCYTE [5] was 1.33%. For the same molecule, the NEUTROPHIL [5] was 12.67%, the “PLATELET COUNT” value [5] was 1066.33 x10E3/uL and the “ALANINE AMINOTRANSFERASE” value [5] was 46 u/L. The ALBUMIN [5] was 4.03 G/DL, the “ALKALINE PHOSPHATASE” value [5] was 373.67 u/L and the “ASPARTATE AMINOTRANSFERASE” value [5] was 68.33 u/L. For the same molecule, the “BLOOD UREA NITROGEN” value [5] was 23.33 mg/dL, the CHLORIDE [5] was 102.67 MEQ/L and the CHOLESTEROL [5] was 70 mg/dL. The “CREATINE PHOSPHOKINASE” value [5] was 117 u/L, the CREATININE [5] was 0.7 mg/dL and the GLUCOSE [5] was 167 mg/dL. For the same molecule, the PHOSPHORUS [5] was 11.37 mg/dL, the POTASSIUM [5] was 7.33 MEQ/L and the SODIUM [5] was 146 MEQ/L. The “TOTAL BILIRUBIN” value [5] was 0.57 mg/dL, the “TOTAL PROTEIN” value [5] was 6.63 G/DL and the BASOPHIL [6] was 0%. The EOSINOPHIL [6] was 0%, the “ERYTHROCYTE COUNT” value [6] was 6.16 x10E6/uL and the HEMATOCRIT [6] was 36.37%. For the same molecule, the HEMOGLOBIN [6] was 14.6 G/DL, the “LEUKOCYTE COUNT” value [6] was 18.57 x10E3/uL and the LYMPHOCYTE [6] was 86%. The “MEAN CORPUSCULAR HEMOGLOBIN” value [6] was 23.73 pg, the “MEAN CORPUSCULAR HEMOGLOBIN CONCENTRATION” value [6] was 40.17 G/DL and the “MEAN CORPUSCULAR VOLUME” value [6] was 59.03 fL. The MONOCYTE [6] was 1.33%, the NEUTROPHIL [6] was 11.67% and the “PLATELET COUNT” value [6] was 1100.67 x10E3/uL. The “ALANINE AMINOTRANSFERASE” value [6] was 47.33 u/L, the ALBUMIN [6] was 3.77 G/DL and the “ALKALINE PHOSPHATASE” value [6] was 450.67 u/L. For the same molecule, the “ASPARTATE AMINOTRANSFERASE” value [6] was 62 u/L, the “BLOOD UREA NITROGEN” value [6] was 22.33 mg/dL and the CHLORIDE [6] was 104.67 MEQ/L. The CHOLESTEROL [6] was 76 mg/dL, the “CREATINE PHOSPHOKINASE” value [6] was 128.33 u/L and the CREATININE [6] was 0.63 mg/dL. It also gave a GLUCOSE [6] of 167.67 mg/dL, a PHOSPHORUS [6] of 10.73 mg/dL and a POTASSIUM [6] of 6.83 MEQ/L. The SODIUM [6] was 148.33 MEQ/L, the “TOTAL BILIRUBIN” value [6] was 0.47 mg/dL and the “TOTAL PROTEIN” value [6] was 6.07 G/DL.

Source: ChEMBL document CHEMBL3885881, “DrugMatrix”
